From patent US20140243273A1, “METHODS FOR TREATING INFLAMMATORY DISEASES AND PHARMACEUTICAL COMBINATIONS USEFUL THEREFOR” (Vertex Pharmaceuticals Incorporated, priority 2011, published 2014)

How the values were obtained:
JAK2 = JAK2 (Homo sapiens, UniProt O60674); experiment: JAK2 Inhibition Assay; type: biochemical; conditions: 5 nM JAK-2 enzyme, 15 μM poly(Glu)4Tyr, 12 μM ATP; kind of constant not given
Experimental: [The procedure below names another target; the source says it served here with some conditions changed.] (§1) Compounds were screened for their ability to inhibit JAK3 using the assay shown below. Reactions were carried out in a kinase buffer containing 100 mM HEPES (pH 7.4), 1 mM DTT, 10 mM MgCl2, 25 mM NaCl, and 0.01% BSA. Substrate concentrations in the assay were 5 μM ATP (200 uCi/μmole ATP) and 1 μM poly(Glu)4Tyr. Reactions were carried out at 25° C. and 1 nM JAK3.
(§2) To each well of a 96 well polycarbonate plate was added 1.5 μl of a compound of Formula I along with 50 μl of kinase buffer containing 2 μM poly(Glu)4Tyr and 10 μM ATP. This was then mixed and 50 μl of kinase buffer containing 2 nM JAK3 enzyme was added to start the reaction. After 15 minutes at room temperature (25° C.), the reaction was stopped with 50 μl of 20% trichloroacetic acid (TCA) that also contained 0.4 mM ATP. The entire contents of each well were then transferred to a 96 well glass fiber filter plate using a TomTek Cell Harvester. After washing, 60 μl of scintillation fluid was added and ^33P incorporation detected on a Perkin Elmer TopCount.

JAK3 = molecular target: T1, JAK3 (Homo sapiens, UniProt P52333); experiment: JAK3 Inhibition Assay; type: biochemical; conditions: 1 nM JAK3, 1 μM poly(Glu)4Tyr, 5 μM ATP, 25° C.; kind of constant not given
T1 sequence (P52333 1-1124): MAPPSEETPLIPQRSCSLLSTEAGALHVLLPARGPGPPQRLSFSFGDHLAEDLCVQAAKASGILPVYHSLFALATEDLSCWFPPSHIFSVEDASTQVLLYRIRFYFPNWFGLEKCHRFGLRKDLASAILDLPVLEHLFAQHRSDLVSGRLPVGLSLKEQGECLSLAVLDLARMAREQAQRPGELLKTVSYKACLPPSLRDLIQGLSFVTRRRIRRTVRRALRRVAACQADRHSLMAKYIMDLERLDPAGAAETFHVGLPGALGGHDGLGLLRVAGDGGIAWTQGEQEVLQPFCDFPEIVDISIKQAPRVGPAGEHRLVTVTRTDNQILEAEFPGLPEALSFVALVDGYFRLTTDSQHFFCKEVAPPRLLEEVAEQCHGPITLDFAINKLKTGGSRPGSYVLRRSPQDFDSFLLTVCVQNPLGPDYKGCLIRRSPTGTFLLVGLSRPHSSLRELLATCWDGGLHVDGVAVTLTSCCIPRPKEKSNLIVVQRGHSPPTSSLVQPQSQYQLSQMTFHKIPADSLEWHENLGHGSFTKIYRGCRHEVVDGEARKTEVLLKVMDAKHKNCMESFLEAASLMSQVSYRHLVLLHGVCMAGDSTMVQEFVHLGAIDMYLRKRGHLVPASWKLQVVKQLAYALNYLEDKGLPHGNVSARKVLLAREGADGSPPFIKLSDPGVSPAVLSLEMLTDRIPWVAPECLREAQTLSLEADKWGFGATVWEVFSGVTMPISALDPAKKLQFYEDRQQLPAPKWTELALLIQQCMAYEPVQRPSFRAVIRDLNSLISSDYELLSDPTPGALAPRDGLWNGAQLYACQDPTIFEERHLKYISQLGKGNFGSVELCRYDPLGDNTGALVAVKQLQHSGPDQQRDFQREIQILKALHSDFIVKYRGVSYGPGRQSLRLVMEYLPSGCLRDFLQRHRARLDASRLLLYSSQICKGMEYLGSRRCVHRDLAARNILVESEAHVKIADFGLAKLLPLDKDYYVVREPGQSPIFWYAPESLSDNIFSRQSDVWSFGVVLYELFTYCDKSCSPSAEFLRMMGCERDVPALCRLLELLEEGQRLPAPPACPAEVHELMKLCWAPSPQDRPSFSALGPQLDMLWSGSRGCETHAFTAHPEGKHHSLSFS
Experimental: as §1, §2

mouse colitis model = experiment: Mouse model for Crohn's disease and ulcerative colitis (CD4+CD25- T cell transfer into SCID mice); type: in vivo; conditions: compound no. 9 (methane sulfonic acid), 50, 100, 150 mpk b.i.d., oral gavage, days 19-33, SCID mice
Experimental: Female SCID mice received grafts of 2.5×10e5 CD4+CD25-T cells from naïve BALB/c wild type donors (all Charles River Laboratories) to induce colitis. On day 14, after cell transfer, the recipient SCID mice were tested for graft acceptance and mice without T cells removed from the study. On days 19-33, the recipient SCID mice were administered compound no. 9 (methane sulfonic acid) mixed with vehicle (1% HPMC-c5, 50 mM Na citrate, pH 3.0) in doses of 50, 100, and 150 mpk b.i.d. Control mice were administered either saline, vehicle (1% HPMC-c5, 50 mM Na citrate, pH 3.0), or 1 mpk dexamethasone, b.i.d. Doses were administered via oral gavage. On day 35, the mice were sacrificed.

JAK2, sequence (O60674 whole entry, species assumed): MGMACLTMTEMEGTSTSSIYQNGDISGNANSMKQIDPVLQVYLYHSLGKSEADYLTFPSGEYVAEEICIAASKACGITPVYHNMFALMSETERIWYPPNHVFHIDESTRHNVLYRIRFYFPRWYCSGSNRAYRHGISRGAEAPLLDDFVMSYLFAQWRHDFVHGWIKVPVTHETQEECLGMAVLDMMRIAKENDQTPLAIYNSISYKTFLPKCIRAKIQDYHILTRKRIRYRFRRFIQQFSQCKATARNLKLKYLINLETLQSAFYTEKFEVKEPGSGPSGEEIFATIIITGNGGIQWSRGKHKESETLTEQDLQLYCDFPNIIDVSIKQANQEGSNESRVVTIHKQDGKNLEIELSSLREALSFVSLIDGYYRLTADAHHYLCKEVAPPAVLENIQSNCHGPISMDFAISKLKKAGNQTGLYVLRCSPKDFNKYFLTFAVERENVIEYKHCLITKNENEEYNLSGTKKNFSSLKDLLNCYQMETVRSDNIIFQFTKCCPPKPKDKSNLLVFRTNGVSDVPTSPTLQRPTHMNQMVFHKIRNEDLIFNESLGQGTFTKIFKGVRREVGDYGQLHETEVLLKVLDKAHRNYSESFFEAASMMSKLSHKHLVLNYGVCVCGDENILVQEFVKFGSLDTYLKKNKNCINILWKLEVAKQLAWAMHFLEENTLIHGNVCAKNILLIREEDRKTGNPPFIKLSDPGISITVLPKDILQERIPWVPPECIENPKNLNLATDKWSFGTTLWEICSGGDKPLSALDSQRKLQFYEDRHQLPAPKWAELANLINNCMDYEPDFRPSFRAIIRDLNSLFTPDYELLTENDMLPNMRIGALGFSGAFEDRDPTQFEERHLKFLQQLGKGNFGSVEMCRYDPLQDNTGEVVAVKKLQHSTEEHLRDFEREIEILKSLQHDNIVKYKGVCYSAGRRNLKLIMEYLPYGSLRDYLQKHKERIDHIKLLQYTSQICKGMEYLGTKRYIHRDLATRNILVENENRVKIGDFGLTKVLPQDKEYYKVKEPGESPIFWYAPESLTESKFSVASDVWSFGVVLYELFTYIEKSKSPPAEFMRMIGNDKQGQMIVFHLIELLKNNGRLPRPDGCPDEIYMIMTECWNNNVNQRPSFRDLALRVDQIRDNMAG

Structure (SMILES)	JAK2 (μM), inhibition data (JAK2) [µM]	JAK3 (μM), inhibition data (JAK3) [µM]	colon histology (mouse colitis model)	colon pathology (mouse colitis model)	frequency of splenic CD4+ T cells (mouse colitis model)	inflammatory cytokine production (mouse colitis model; colon tissue)
CC(C)(Nc1nc(-c2c[nH]c3ncc(Cl)cc23)ncc1F)C(=O)NCC(F)(F)F [compound 19]	0.001	0.004				
CCNC(=O)C(C)(C)Nc1ccnc(-c2c[nH]c3ncc(Cl)cc23)n1 [compound 17]	0.003	0.001				
CC[C@@](C)(Nc1ccnc(-c2c[nH]c3ncc(Cl)cc23)n1)C(=O)NCC(F)(F)F [compound 16]	0.01	0.002				
CC[C@](C)(Nc1nc(-c2c[nH]c3ncc(Cl)cc23)ncc1F)C(=O)NCC(F)(F)F [compound 15]	0.001	0.002				
CC(C)[C@](C)(Nc1nc(-c2c[nH]c3ncc(Cl)cc23)ncc1F)C(=O)NCC(F)(F)F [compound 10]	0.001	0.002				
CC[C@](C)(Nc1ccnc(-c2c[nH]c3ncc(Cl)cc23)n1)C(=O)NCC(F)(F)F [compound 14]	0.002	0.003				
CCNC(=O)C(C)(C)Nc1ncnc(-c2c[nH]c3ncccc23)n1 [compound 8]	0.083	0.019				
CC(C)[C@@](C)(Nc1nc(-c2c[nH]c3ncc(Cl)cc23)ncc1F)C(=O)NCC(F)(F)F [compound 11]	0.055	0.006				
CC[C@](C)(Nc1nc(-c2c[nH]c3ncccc23)ncc1F)C(=O)NCC(F)(F)F [compound 3]	0.028	0.0042				
CCN(C)C(=O)[C@](C)(CC)Nc1ccnc(-c2c[nH]c3ncccc23)n1 [compound 7]	0.056	0.018				
CC[C@@](C)(Nc1nc(-c2c[nH]c3ncc(Cl)cc23)ncc1F)C(=O)NCC(F)(F)F [compound 12]	0.037	0.006				
CC(C)(Nc1ncnc(-c2c[nH]c3ncc(Cl)cc23)n1)C(=O)NCC(F)(F)F [compound 13]	0.003	0.001				

The next lines start with results.

JAK2 (μM), inhibition data (JAK2) [µM]	JAK3 (μM), inhibition data (JAK3) [µM]	Structure (SMILES)	colon histology (mouse colitis model)	colon pathology (mouse colitis model)	frequency of splenic CD4+ T cells (mouse colitis model)	inflammatory cytokine production (mouse colitis model; colon tissue)
0.091	0.0056	CC(C)(Nc1nc(-c2c[nH]c3ncccc23)ncc1F)C(=O)NCC(F)(F)F [compound 4]				
0.028	0.0032	CC(C)(Nc1ccnc(-c2c[nH]c3ncccc23)n1)C(=O)NCC(F)(F)F [compound 2]				
0.001	0.001	CC(C)(Nc1ccnc(-c2c[nH]c3ncc(Cl)cc23)n1)C(=O)NCC(F)(F)F [Compound No. 9]	Improvements	improved	significant reduction	improved
0.046	0.0045	CC(C)(Nc1ncnc(-c2c[nH]c3ncccc23)n1)C(=O)NCC(F)(F)F [compound 6]				
0.015	0.003	CC[C@@](C)(Nc1ccnc(-c2c[nH]c3ncccc23)n1)C(=O)NCC(F)(F)F [compound 1]				
0.0042	0.0024	CC(C)[C@](C)(Nc1ccnc(-c2c[nH]c3ncccc23)n1)C(=O)NCC(F)(F)F [compound 5]				
0.0007	0.001	CC(C)[C@](C)(Nc1ccnc(-c2c[nH]c3ncc(Cl)cc23)n1)C(=O)NCC(F)(F)F [compound 18]				
